Measurements from US20120052125A1, “Cholesteryl Sulfate-Containing Composition As A Haemostatic” (DR. SUWELACK SKIN & HEALTH CARE AG, priority 2008, published 2012).

Key:
porcine whole blood = assay: Sonoclot analysis (clotting time ACT and clot rate) in recalcified porcine whole blood; assay type: biochemical; settings: for ACT / clot rate: 360 μl porcine whole blood, recalcified with 20 μl 0.2 M calcium chloride, 1.1 mg carrier, SCS as 4% by wt vesicle solution
Excerpt: The haemostatic effect of cholesteryl sulfate as such was investigated using a Sonoclot®Coagulation & Platelet Function Analyzer by Scienco® Inc with regard to the clotting time (ACT) and clot rate. In this case, the ACT value indicates the time until the onset of the first thickening of the blood, which matches the time required by the system for generating a first blood clot. The clot rate indicates the speed with which the clot solidifies, and is there fore a measure for fibrin formation.
For the investigations presently illustrated, different quantities of cholesteryl sulfate in the form of its sodium salt was dissolved in methanol, and aliquots were transferred into the reaction vessels. By evaporating the methanol, the cholesteryl sulfate was precipitated as a layer on the bottom of the reaction vessel. Then 360 μl of porcine citrate blood were put into the reaction vessel, and 20 μl 0.2 M calcium chloride solution were subsequently added for recalcification. Both the time until coagulation (ACT) as well as the clot formation rate were measured with the Sonoclot Analyzer.
In order to show the enhanced effects in blood clotting of the combination of cholesteryl sulphate as a haemostatic agent and a haemostatic carrier material such as collagen the Sonoclot-Test has been carried out according to example 1.
The test condition and materials were in accordance with example 1.
As a carrier material freeze-dried, milled collagen from the company Dr. Suwelack Skin & Health Care AG (SHC) as well as collagen from bovine tendon from the company Sigma Aldrich have been examined in the Sonoclot-Analyzer and compared to cholesteryl sulphate as well as to a combination of the collagen and cholesteryl sulphate (SCS).
For the examination of the collagen carrier material 1.1 mg carrier material were transferred into the reaction vessels containing 360 μl porcine whole blood. 12.5 μl isosmotic saline solution (NaCl) were subsequently admixed and 20 μl 0.2 M calcium chloride solution were subsequently added for recalcification. Both the time until coagulation (ACT) as well as the clot formation rate were measured with the Sonoclot Analyzer. High clot rate indicates fast fibrin formation and thus fast clot formation.
For the examination of the collagen carrier material in combination with cholesteryl sulphate instead of isosmotic saline solution 12.5 μl of a cholesteryl sulphate vesicle solution containing 4% by wt cholesteryl sulphate is admixed with the carrier material.
For the examination of the cholesteryl sulphate a 4% by wt vesicle solution alone was tested accordingly.
The vesicle solution was prepared as described in example 2, Nr. 2 a).

[1] = Solubility of cholesteryl sulfate salts; assay type: physicochemical
[2] = Stability of cholesteryl sulfate salts; assay type: physicochemical

Row | SMILES | ACT (porcine whole blood; Experiment 1) | clot rate (porcine whole blood; Experiment 1) | ACT (porcine whole blood; Experiment 2) | clot rate (porcine whole blood; Experiment 2) | effect on coagulation (porcine whole blood; non-activated system, no pre-incubation) | water-solubility [1] | solubility compared with sodium cholesteryl sulfate ([1]; e.g. in methanol) | stability compared with sodium cholesteryl sulfate [2]
1 | CC(C)CCC[C@@H](C)[C@H]1CC[C@H]2[C@@H]3CC=C4C[C@@H](OS(=O)(=O)[O-])CC[C@]4(C)[C@H]3CC[C@]12C.[Na+] [12.5 μl SCS, sodium cholesteryl sulfate] | 90 s | 17 | 81 s | 29 | coagulation-promoting effect | only small water-solubility | – | –
2 | CC(C)CCC[C@@H](C)[C@H]1CC[C@H]2[C@@H]3CC=C4C[C@@H](OS(=O)(=O)[O-])CC[C@]4(C)[C@H]3CC[C@]12C.[K+] [potassium cholesteryl sulfate] | – | – | – | – | – | only small water-solubility | less soluble | greater stability
